Source: patent publication US20200383985A1, “Inhibitors of Protease Activated Receptor-2” (Endosome Therapeutics, Inc., priority 2017, published 2020)
Where two headings read alike, the source gives them in different places. Starred links: 1 amine or outer side, 2 acyl side, 3 side chain; linkers in the order of their positions; H or OH if unused. Positions of bridges follow the written chain, without caps; N, C: chain ends. Non-standard residues stand in square brackets, D forms with d. Residues, ends and D or L forms follow the SMILES beside them. *: point of attachment. Leu(3R-OH,Nα-propionyl) = CCC(=O)N[C@H](C(=O)*)[C@H](O)C(C)C; X1 = CC(C)[C@@H](O[*:3])[C@H](N[*:1])C(=O)[*:2]; NMeT = CN[C@H](C(=O)O)[C@@H](C)O; dPhLac = O=C(O)[C@H](O)Cc1ccccc1; NMeA = CN[C@@H](C)C(=O)O; NMeDha = C=C(NC)C(=O)O

Columns and labels:
Assay type in all cases: cell-based
[1] = tested on: cytosolic and nuclear ERK; test: FRET assays of cytosolic and nuclear ERK in HEK293 cells; conditions: UBO-QIC 100 nM, G66983 1 μM; for trypsin-stimulated activation of cytosolic ERK: AG1478 1 μM
Procedure: Trypsin-induced ERK signaling mediated by endosomal PAR2 signaling was investigated in HEK293 cells expressing Flag-PAR2-HA11 and FRET biosensors for cytosolic and nuclear ERK (CytoEKAR, NucEKAR), plasma membrane and cytosolic PKC (pmCKAR, CytoCKAR), and plasma membrane and cytosolic cAMP (pmEpac, CytoEpac). […] I-343 (10 μM) but not SCH530348 (100 nM) inhibited trypsin activation of cytosolic and nuclear ERK (FIG. 5G). PS2 and DynK44E inhibited trypsin-stimulated activation of cytosolic and nuclear ERK when compared to PS2 inact and DynWT controls (FIG. 5H, 5I, 17G-J). AG1478 (1 μM), an inhibitor of EGF receptor tyrosine kinase (Levitzki, A. & Gazit, A. Science 1995, 267(5205): 1782-1788), UBO-QIC (100 nM), which inhibits Gαq and certain Gβγ signals ([…]), and G66983 (1 μM), which inhibits all isoforms of PKC (Gschwendt, M, et al., FEBS Lett 1996, 392(2): 77-80), suppressed trypsin-stimulated activation of cytosolic ERK (FIGS. 5J and 17K).
HEK293 cells were cultured in DMEM supplemented with 10% (v/v) FBS (5% CO2, 37° C.). When necessary serum restriction was achieved by replacing culture medium with DMEM containing 0.5% FBS overnight. Cells were transiently transfected using polyethylenimine (PEI) (1:6 DNA:PEI).
HEK293 cells were transiently transfected in 10 cm dishes (˜50% confluency) with Flag-PAR2-HA (2.5 μg) and FRET biosensors CytoEKAR or NucEKAR (2.5 μg) (Jensen, D. D. et al., Sci Transl Med. 2017, 9(392), eaal3447; Thomsen, A. R. B., et al., Cell 2016, 166(4): 907-919). In experiments examining the role of dynamin, cells were transfected with FLAG-PAR2-HA (1.25 μg), FRET biosensor (1.25 μg) and either DynWT-HA, DynK44E-HA or pcDNA3.1 (2.5 μg). At 24 h after transfection, cells were seeded on ViewPlate-96 well plates (PerkinElmer). FRET was assessed 72 h post-transfection, following overnight serum restriction. Cells were equilibrated in HBSS-HEPES (30 min, 37° C.). FRET was measured using a PHERAstar FSX Microplate Reader (BMG LabTech). For CFP/YFP emission ratio analysis, cells were sequentially excited using a CFP filter (425/10 nm) with emission measured using YFP (550/50 nm) and CFP (490/20 nm) filters. FRET was measured before and after stimulation with trypsin (10 nM), NE (100 nM), CS (100 nM), phorbol 12,13-dibutyrate, PDBu (positive control, 1 μM), or vehicle. FRET ratios (donor/acceptor intensity for EKAR, or acceptor/donor intensity for CKAR and Epac) were calculated and corrected to baseline and vehicle treatments to determine ligand-induced FRET (ΔFRET). Treatment effects were determined by comparison of area under the curve values. Signalling inhibitors were dissolved in HBSS-HEPES. PS2 and PS2 inact were dissolved in HBSS-HEPES+1% DMSO. Cells were incubated with UBO-QIC (100 nM), AG1478 (1 μM), G66983 (1 μM), PS2 or PS2 inact (30 μM) or vehicle (30 min preincubation, inclusion throughout).

human (h) PAR2 = molecular target: T1, human (h) PAR2 (Homo sapiens, UniProt P55085); test: IP1 accumulation assay in KNRK-hPAR2 cells; conditions: for inhibition at 30 µM: 100 nM 2F, 30 μM of antagonist, read-out: KNRK-PAR2 100 nM 2F: ND (inhibition of 2F at 30 μM of antagonist)
T1 construct: expressed in transfected cells; host or cells: KNRK cells (KNRK-hPAR2)
T1 sequence (P55085 26-397): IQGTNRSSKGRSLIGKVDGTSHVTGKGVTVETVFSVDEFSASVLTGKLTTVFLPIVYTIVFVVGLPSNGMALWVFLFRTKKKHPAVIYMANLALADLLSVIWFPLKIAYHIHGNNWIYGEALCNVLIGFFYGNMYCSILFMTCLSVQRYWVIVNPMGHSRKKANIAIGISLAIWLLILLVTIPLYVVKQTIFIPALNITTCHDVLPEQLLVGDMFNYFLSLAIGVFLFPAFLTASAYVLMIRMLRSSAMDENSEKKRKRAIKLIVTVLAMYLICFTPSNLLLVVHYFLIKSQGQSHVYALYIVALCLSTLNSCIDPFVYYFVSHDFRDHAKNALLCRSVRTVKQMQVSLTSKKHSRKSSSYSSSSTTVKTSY
Procedure: (§1) KNRK-hPAR2, KNRK or HT-29 cells were seeded at a density of 50×10^3 cells/well in a clear poly-d-lysine coated 96 well tissue culture plate. Following 24 h incubation at 37° C. and 5% CO2, media was removed and replaced with 80 μl IP1 stimulation buffer (10 mM HEPES, 1 mM CaCl2, 0.5 mM MgCl2, 4.2 mM KCl, 146 mM NaCl, 5.5 mM glucose, 50 mM LiCl). Following stimulation buffer addition, the wells received 10 μl of 10× antagonists or DMSO vehicle. All plates were further incubated at 37° C., 5% CO2 for 30 min. 10 μl of 2F or ATP was added to the plates and further incubated for 40 min. Following incubation, stimulation buffer was quickly removed by aspiration and replaced with 25 μl lysis buffer (IP-One HTRF® assay kit, Cisbio). Following incubation of the lysates at 37° C., 5% CO2 for 10′, 10 μl lysate was transferred to a 384-well OptiPlate (PerkinElmer) and detected using the IP-One HTRF® assay kit (Cisbio).
(§2) Compounds of the invention (added at 10×concentrations in a 10 μL volume) were incubated for 30 min prior to the addition of 10 μM ATP or 100 nM or 300 nM PAR2 agonist (2F; EC80, added at 10×concentrations in a 10 μL volume) and then further incubated for 40 min. After lysis, the inositol phosphate 1 was quantified with IP-One HTRF® assay kit, Cisbio. The data was analysed with Prism, GraphPad to calculate the IC50 values, shown below in Table 1.
(§3) Inhibition of PAR2 signaling with known PAR2 inhibitor I-343 (FIG. 14A) was investigated in HT-29 cells and HEK293 cells, which express endogenous PAR2, and in KNRK cells expressing human (h) PAR2. Accumulation of inositol phosphate-1 (IP1) was measured in response to the PAR2-selective agonist 2-Furoyl-LIGRLO-NH2 (2F), an analogue of the trypsin-exposed tethered ligand, or trypsin.
(§4) KNRK-hPAR2, KNRK, HEK293, or HT-29 cells were seeded at a density of 50×10^3 cells/well onto clear 96-well plates (PerkinElmer). After 24 h of culture, medium was replaced with IP1 stimulation buffer (10 mM HEPES, 1 mM CaCl2, 0.5 mM MgCl2, 4.2 mM KCl, 146 mM NaCl, 5.5 mM glucose, 50 mM LiCl; 37° C., 5% CO2.). Cells were pre-incubated with the antagonist or vehicle for 30 min prior to the addition of agonist. Cells were then further incubated for 40 min. Stimulation buffer was […]

PAR2 = molecular target: T2, PAR2 (Homo sapiens, UniProt P55085); test: IP1 accumulation assay in HT-29 cells (endogenous PAR2); conditions: 2F (300 nM)-induced IP1, HT-29 cells
T2 construct: HT-29 cells and HEK293 cells, which express endogenous PAR2; endogenous in cells; host or cells: HT-29
T2 sequence (P55085 26-397): T1 sequence (P55085 26-397)
Procedure: as §1, §2, §3, §4

[2] = read-out: HT-29 300 nM 2F pIC50 ± SEM (converted)
[3] = read-out: HT-29 300 nM 2F (IC50)

IC50 (PAR2; [2]) [nM]	SMILES	trypsin-stimulated activation of cytosolic ERK [1]	inhibition at 30 µM (human (h) PAR2) [%]	other results
–	COc1ccc2c(c1)c(C1=C(c3c[nH]c4ccccc34)C(=O)NC1=O)cn2CCCN(C)C [Compound G66983]	suppressed	–	trypsin-stimulated activation of nuclear ERK [1]: inhibited
–	COc1cc2ncnc(Nc3cccc(Cl)c3)c2cc1OC [AG1478]	suppressed	–	–
42.7	COC(=O)C12CCC(C(=O)N3CCN(C(=O)c4cn5nc(-c6ccc(F)cc6)cc(C(C)(C)C)c5n4)C(C)(C)C3)(CC1)CC2 [Compound 8, methyl 4-(4-(8-(tert-butyl)-6-(4-fluorophenyl)imidazo[1,2-b]pyridazine-2-carbonyl)-3,3-dimethylpiperazine-1-carbonyl)bicyclo[2.2.2]octane-1-carboxylate]	–	–	IC50 (human (h) PAR2; 2F (100 nM)-induced IP1, KNRK-hPAR2 cells, read-out: KNRK-PAR2 100 nM 2F pIC50 ± SEM (converted)): > 10000 nM
47.2	CCCCCCCCCCCCCCCCNC(=O)C[C@H](NC(=O)CCOCCOCCOCCOCCOCCOCCOCCOCCOCCOCCOCCOCCNC(=O)Cn1cc(C(=O)N2CCN(C(=O)c3cn4nc(-c5ccc(F)cc5)cc(C(C)(C)C)c4n3)C(C)(C)C2)nn1)C(N)=O [Compound 15, (S)-3-(1-(4-(4-(8-(tert-butyl)-6-(4-fluorophenyl)imidazo[1,2-b]pyridazine-2-carbonyl)-3,3-dimethylpiperazine-1-carbonyl)-1H-1,2,3-triazol-1-yl)-2-oxo-6,9,12,15,18,21,24,27,30,33,36,39-dodecaoxa-3-azadotetracontan-42-amido)-N1-hexadecylsuccinamide]	–	< 50	–
–	CC(C)CCC[C@@H](C)[C@H]1CC[C@H]2[C@@H]3CC[C@@H]4C[C@@H](OC(=O)C[C@H](NC(=O)CCOCCOCCOCCOCCOCCOCCNC(=O)[C@@H](O)[C@H](O)[C@H](O)[C@@H](O)C(=O)NC5CCC(C(=O)N6CCN(C(=O)c7cn8nc(-c9ccc(F)cc9)cc(C(C)(C)C)c8n7)C(C)(C)C6)CC5)C(N)=O)CC[C@]4(C)[C@H]3CC[C@]12C (stereo partly drawn) [Compound 16, (3S,5R,8R,9S,10S,13R,14S,17R)-10,13-dimethyl-17-((R)-6-methylheptan-2-yl)hexadecahydro-1H-cyclopenta[a]phenanthren-3-yl (3S,28S,29R,30S,31R)-32-((4-(4-(8-(tert-butyl)-6-(4-fluorophenyl)imidazo[1,2-b]pyridazine-2-carbonyl)-3,3-dimethylpiperazine-1-carbonyl)cyclohexyl)amino)-3-carbamoyl-28,29,30,31-tetrahydroxy-5,27,32-trioxo-8,11,14,17,20,23-hexaoxa-4,26-diazadotriacontanoate]	–	< 50	IC50 (PAR2; [3]): 2070 nM
180	CC(C)(C)c1cc(-c2ccc(F)cc2)nn2cc(C(=O)N3CCN(C(=O)c4cn(CC(=O)NCCOCCOCCO)nn4)CC3(C)C)nc12 [Compound 5, 2-(4-(4-(8-(tert-butyl)-6-(4-fluorophenyl)imidazo[1,2-b]pyridazine-2-carbonyl)-3,3-dimethylpiperazine-1-carbonyl)-1H-1,2,3-triazol-1-yl)-N-(2-(2-(2-hydroxyethoxy)ethoxy)ethyl)acetamide]	–	< 50	–
–	CC(C)CCC[C@@H](C)[C@H]1CCC2C3CCC4C[C@@H](OC(=O)C[C@H](NC(=O)CCOCCOCCNC(=O)Cn5cc(C(=O)N6CCN(C(=O)c7cn8nc(-c9ccc(F)cc9)cc(C(C)(C)C)c8n7)C(C)(C)C6)nn5)C(N)=O)CC[C@]4(C)C3CC[C@@]21C (stereo partly drawn) [Compound 9, (3S,10S,13R,17R)-10,13-dimethyl-17-((R)-6-methylheptan-2-yl)hexadecahydro-1H-cyclopenta[a]phenanthren-3-yl (14S)-1-(4-(4-(8-(tert-butyl)-6-(4-fluorophenyl)imidazo[1,2-b]pyridazine-2-carbonyl)-3,3-dimethylpiperazine-1-carbonyl)-1H-1,2,3-triazol-1-yl)-14-carbamoyl-2,12-dioxo-6,9-dioxa-3,13-diazahexadecan-16-oate]	–	< 50	IC50 (PAR2; [3]): 700 nM
–	C=C1C(=O)N[C@@H](C)C(=O)N(C)[C@@H](C)C(=O)N[C@@H]([C@H](OC(=O)[C@@H](NC(=O)CC)[C@H](O)C(C)C)C(C)C)C(=O)N(C)[C@@H]([C@@H](C)OC)C(=O)O[C@H](C(C)C)[C@H](NC(C)=O)C(=O)O[C@H](Cc2ccccc2)C(=O)N1C [UBO-QIC] (Ac-[X1][dPhLac][NMeDha]A[NMeA][X1](Leu(3R-OH,Nα-propionyl))[NMeT](Me); ester 1-C)	suppressed	–	trypsin-stimulated activation of nuclear ERK [1]: inhibited
